Laboratory results as given in PMC10644391, “Targeted Reversible Covalent Modification of a Noncatalytic Lysine of the Krev Interaction Trapped 1 Protein Enables Site-Directed Screening for Protein–Protein Interaction Inhibitors” (ACS Pharmacology & Translational Science, 2023).
Where “and” joins values, the source holds several entries; their conditions need not be identical. Equal values may be shown once.

How the values were obtained:
[1] = HEK293 cytotoxicity, resazurin cell viability assay; format: cell-based; settings: human, HEK293 cells, means ± SD, n = 3
Description: Maintenance of HEK293 Cells. HEK293 cell lines (American Type Culture Collection (ATCC)) were cultured in Dulbecco's Modified Eagle Medium (DMEM, Invitrogen) supplemented with 10% heat-inactivated fetal bovine serum (FBS, Gibco) and penicillin-streptomycin (1%). Cells were kept at 37 °C and 5% CO2, and were passaged every 72 hours.
Resazurin Cell Viability Assay. The cytotoxicity in HEK293 cells were determined using a resazurin cell viability assay. Test compounds in DMSO were diluted to 100x desired final assay concentration (maximum concentration of 100 µM) in eight-point dose response. 1 µL of test compounds were plated in a 96-well clear bottom tissue culture microplate. 49 µL of cell culture media was added to each well. Cells were diluted to 4 x 10^5 cells/mL, and 50 µL of this cell suspension was seeded to each well for a total of 2 x 10^4 cells/well. The assay plate was kept at 37 °C and 5% CO 2 for either 4 or 48 hours. At the end of the incubation time, 20 µL of 0.5 mM resazurin sodium salt (Alfa Aesar) solution in PBS was added to each well. The assay plates were incubated further at 37 °C for 2 hours. Fluorescence was measured at 531 nm and 595 nm excitation and emission wavelengths, respectively, using a 2104 EnVision® multilabel plate reader. CC50 values were obtained using sigmoidal curved generated with Prism GraphPad (San Diego, CA). SD values are reported as the standard deviation of the CC50 values of 3 biological replicates. All

HEG1-KRIT1 PPI = biological target: T1, HEG1-KRIT1 PPI (Homo sapiens, UniProt O00522); assay: HEG1-KRIT1 PPI fluorescence polarization (FP) time-resolved assay; format: biochemical; settings: means ± SD, n = 3; for IC50: fluorescence polarization assay after 4 h of incubation; for HEG1-KRIT1 PPI Assay kon / koff: global fit across six or more inhibitor concentrations; for Ki: global fit, unit in Figure 2E, read-out: HEG1-KRIT1 PPI Assay Ki (koff/kon)
T1 construct: a recombinant FERM domain (residues 417–736) of KRIT1; made in house; host or cells: E. coli
Description: To evaluate the binding kinetics of HNA inhibitors, a fluorescence polarization (FP) time-resolved assay that uses a recombinant FERM domain (residues 417–736) of KRIT1 and a fluorescence-tagged HEG1 cytoplasmic tail (Cy5-HEG1 7-mer peptide) was developed (Supporting Information). Using HNA as a test compound, the FP data, expressed as millipolarization (mP) units, were obtained every 10 min over the course of 4–7 h. […] Thus, for practical purposes, a 4-h incubation time was established as the standard assay time for non-kinetic IC50 evaluations.
Fluorescence Polarization Assay and Optimization
The KRIT1 FERM domain (residues 417-736) was cloned into plasmid and recombinantly expressed in E. coli as previously described,1 while the Cy5-HEG1 7- mer peptide bearing the Cy5 dye as fluorescent probe was prepared by and purchased from GenScript (New Jersey, US). HEPES- buffered saline (HBS) buffer was supplemented (0.01%) with detergent Triton X -100 to minimize protein adsorption to the microplate. The assay was setup in a 96-well plate plated with 80 nM KRIT1, 4 nM Cy5- HEG1 probe, and either non-tagged HEG1 peptide or HNA as inhibitor (in 5% DMSO). To account for background fluorescence that could interfere with the assay, background wells with only test compound and Cy5 -HEG1 probe (no KRIT1) were also plated. The FP data, expressed as millipolarization (mP) units, were obtained […]
course of 4-7 hours (for kinetic characterization) using a Tecan Spark® Multimode Microplate Reader. The background mP (no KRIT1) was subtracted from mP to account for background fluorescence. All assays were done in triplicates.
Several FP assay conditions were optimized. First, the HEG1 probe engagement of KRIT1 was examined and its interaction was determined to be rapid equilibrium, thus any observed time dependance in response when an inhibitor displaces the probe is the result of inhibitor exchange kinetics and not that of the probe. Next, the affinity of KRIT1 for the probe (Kd) was examined by following the change in polarization signal as a function of a matrix of five probe concentrations and four KRIT1 concentrations (Figure S1B ). A global fit of equation 3 to polarization responses of the inhibitor vs KRIT1 concentration […]
even after 7 hours of incubation. For practical purposes, we have chosen 4 hours as our standard incubation time since it appeared that most of the inhibition has been reached at this time point. The kinetic characterization of HNA as a HEG1- KRIT1 inhibitor will be discussed in greater detail in the kinetic section […]
values to those obtained from the flow cytometry assay. Finally, to assess the robustness of the FP assay, […]
a robust assay) representing an excellent assay with clear differences between positive and negative controls.2 Evaluation of HEG1-KRIT1 inhibitors prior to the optimization of the FP assay were done using flow cytometry, while subsequent compounds were evaluated using the FP assay. All subsequent assay plates included HNA as comparison and control.
Figure S1. Optimization of fluorescence polarization (FP) assay.
HEG1-KRIT1 inhibition. (B) Optimization of KRIT1 protein and Cy5 -HEG1 probe concentrations. Dose-response curve of HNA obtained via fluorescence polarization (C) and flow cytometry (D) assays show […]
All assays were tested in technical duplicates or triplicates in at least 2 different

[2] = pKa by potentiometric titration (Sirius T3); format: physicochemical; settings: potentiometric titrations, means ± SD of three titrations

T1 sequence (O00522 417-736): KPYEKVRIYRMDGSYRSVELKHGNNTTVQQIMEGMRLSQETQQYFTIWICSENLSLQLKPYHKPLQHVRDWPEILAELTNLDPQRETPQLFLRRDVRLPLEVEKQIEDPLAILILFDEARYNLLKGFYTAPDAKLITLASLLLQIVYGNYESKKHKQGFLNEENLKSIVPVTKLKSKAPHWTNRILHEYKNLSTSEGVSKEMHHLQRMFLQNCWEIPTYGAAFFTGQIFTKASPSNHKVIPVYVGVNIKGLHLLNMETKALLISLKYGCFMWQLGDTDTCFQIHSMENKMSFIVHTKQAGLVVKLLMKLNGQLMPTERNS

SMILES	IC50 (HEG1-KRIT1 PPI)	HEG1-KRIT1 PPI Assay kon (HEG1-KRIT1 PPI)	koff (HEG1-KRIT1 PPI)	Ki (HEG1-KRIT1 PPI)	pKa [2]	CC50 at 48 h [1]
C=CCc1ccc2c(C=O)c(O)ccc2c1 [Compound 7]	1220 ± 430 nM	50.8 ± 5 M⁻¹ s⁻¹	3.19e-05 s⁻¹	630 ± 160 nM	7.17 ± 0.09	33900 ± 5400 nM
O=Cc1c(O)ccc2cc(Cl)ccc12 [Compound 8]	1830 ± 820 nM	35.6 ± 5 M⁻¹ s⁻¹	2.97e-05 s⁻¹	840 ± 330 nM	7.3 ± 0.06	~100000 nM
C=CCOc1ccc2c(C=O)c(O)ccc2c1 [Compound 9]	2750 ± 190 nM	24.6 ± 1.81 M⁻¹ s⁻¹	2.29e-05 s⁻¹	930 ± 240 nM	7.34 ± 0.12	59200 ± 12900 nM
O=Cc1c(O)ccc2cc(OC(F)F)ccc12 [Compound 10]	2210 ± 680 nM	29.7 ± 2.5 M⁻¹ s⁻¹	3.08e-05 s⁻¹	1030 ± 250 nM	6.95 ± 0.12	> 100000 nM
CN(C)c1ccc2c(C=O)c(O)ccc2c1 [Compound 11]	12100 ± 4610 nM	9.64 M⁻¹ s⁻¹ and 9.64 ± 2.08 M⁻¹ s⁻¹	0.00011 s⁻¹	11400 ± 4080 nM		> 100000 nM
CC#Cc1ccc2c(C=O)c(O)ccc2c1 [Compound 12]	1420 ± 320 nM	43.1 ± 5.83 M⁻¹ s⁻¹	4.36e-05 s⁻¹	1010 ± 290 nM	7.02 ± 0.08	~100000 nM
O=Cc1c(O)ccc2cc(-c3c[nH]nn3)ccc12 [Compound 14]	12000 ± 1090 nM	4.58 M⁻¹ s⁻¹ and 4.58 ± 0.444 M⁻¹ s⁻¹	1.99e-05 s⁻¹	4350 ± 1770 nM	7.38 ± 0.12	> 100000 nM

Now those with a lower IC50 (HEG1-KRIT1 PPI), led by results:

IC50 (HEG1-KRIT1 PPI)	HEG1-KRIT1 PPI Assay kon (HEG1-KRIT1 PPI)	koff (HEG1-KRIT1 PPI)	Ki (HEG1-KRIT1 PPI)	pKa [2]	SMILES	CC50 at 48 h [1]
470 ± 110 nM	200 ± 30 M⁻¹ s⁻¹	0.000114 s⁻¹	570 ± 140 nM		O=Cc1c(O)ccc2cc(-c3cccs3)ccc12 [Compound 4]	33900 ± 700 nM
940 ± 120 nM	52.8 ± 9.17 M⁻¹ s⁻¹	4.97e-05 s⁻¹	940 ± 320 nM	7.5 ± 0.02	O=Cc1c(O)ccc2ccc(-c3ccco3)cc12 [Compound 6]	41200 ± 6700 nM
790 ± 240 nM	112 ± 23.9 M⁻¹ s⁻¹	7.28e-05 s⁻¹	650 ± 240 nM	6.76 ± 0.1	O=Cc1c(O)ccc2cc(-c3ccccc3)ccc12 [Compound 13]	43500 ± 9400 nM
1180 ± 390 nM	60.3 ± 7.5 M⁻¹ s⁻¹	5e-05 s⁻¹	830 ± 200 nM	7.75 ± 0.08	O=Cc1c(O)ccc2cc(-c3ccsc3)ccc12 [Compound 15]	38400 ± 6100 nM
240 ± 90 nM	232 ± 40.8 M⁻¹ s⁻¹	7.28e-05 s⁻¹	310 ± 90 nM		O=Cc1c(O)ccc2ccc(-c3cccs3)cc12 [Compound 16]	31400 ± 4200 nM
